Like-named read-outs stand apart in the source and are kept apart here.
Key:
CIC-1 channels = target: T1, CIC-1 channels (Rattus norvegicus, UniProt P35524); experiment: Electrophysiological measurement of compound inhibition of CIC-1 (Gm) in rat soleus muscle fibres: EC50 (Table 7)
T1 sequence (P35524 1-994): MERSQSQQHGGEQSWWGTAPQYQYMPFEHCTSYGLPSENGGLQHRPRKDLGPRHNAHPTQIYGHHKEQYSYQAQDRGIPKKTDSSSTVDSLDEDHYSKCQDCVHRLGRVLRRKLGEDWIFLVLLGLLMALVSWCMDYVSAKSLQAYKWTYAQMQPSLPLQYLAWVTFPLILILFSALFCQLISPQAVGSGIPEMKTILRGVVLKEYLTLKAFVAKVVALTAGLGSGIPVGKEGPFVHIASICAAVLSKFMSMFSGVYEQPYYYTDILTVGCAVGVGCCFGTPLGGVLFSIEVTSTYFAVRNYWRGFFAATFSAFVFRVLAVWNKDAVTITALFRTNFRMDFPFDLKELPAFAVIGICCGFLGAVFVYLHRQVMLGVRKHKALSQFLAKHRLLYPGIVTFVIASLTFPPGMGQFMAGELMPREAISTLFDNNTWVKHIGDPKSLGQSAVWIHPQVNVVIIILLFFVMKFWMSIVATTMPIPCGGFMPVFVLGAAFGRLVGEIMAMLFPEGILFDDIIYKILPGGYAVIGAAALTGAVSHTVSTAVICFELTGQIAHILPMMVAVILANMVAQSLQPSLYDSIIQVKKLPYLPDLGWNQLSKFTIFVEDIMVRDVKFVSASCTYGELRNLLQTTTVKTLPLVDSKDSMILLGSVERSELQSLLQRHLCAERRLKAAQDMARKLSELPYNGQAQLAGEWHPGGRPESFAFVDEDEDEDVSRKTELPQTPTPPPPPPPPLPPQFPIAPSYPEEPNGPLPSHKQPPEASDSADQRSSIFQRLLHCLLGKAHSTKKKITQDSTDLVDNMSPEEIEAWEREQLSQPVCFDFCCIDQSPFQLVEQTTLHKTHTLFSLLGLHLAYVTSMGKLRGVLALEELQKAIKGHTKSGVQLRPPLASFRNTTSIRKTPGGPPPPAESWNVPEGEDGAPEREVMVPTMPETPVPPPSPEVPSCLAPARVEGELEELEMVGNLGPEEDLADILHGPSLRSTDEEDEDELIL

rat soleus muscles [1] = experiment: Recovery of force in isolated rat soleus nerve-muscle preparations after 115 nM tubocurarine, 50 μM compound (Table 8); conditions: 40 mins exposure
Protocol: Force traces from a representative muscle stimulated to contract in 1) control condition before addition of neuromuscular blocking agent, 2) the force response to stimulation after 90 minutes incubation with Tubocurarine. […] The traces presented in FIG. 12A (1, 2, 3), correspond to the dotted lines in FIG. 12B, respectively.
Recovery of force is quantified as the percentage of the force prior to tubocurarine that is recovered by the compound.
The current invention relates to compounds that inhibit CIC-1 ion channels and increase muscle excitability and thereby improve muscle function in clinical conditions where muscle activation is failing. Such conditions result in loss of contractile function of skeletal muscle, weakness and excessive fatigue. In this series of experiments the compounds were tested for their ability to restore contractile function of isolated rat muscle when the neuromuscular transmission had been compromised akin to neuromuscular disorders.
Experimentally, soleus muscles from 4-5 wk old rats were isolated with the motor nerve remaining attached. The nerve-muscle preparations were mounted in experimental setups that enabled electrical stimulation of the motor nerve. Stimulation of the motor nerve led to activation of the muscle fibres and ensuing force production that was recorded.
After mounting the nerve-muscle preparation in the experimental setup, the contractile function of the muscle was initially assessed under the control conditions (FIG. 2A). […] The experimental condition mimics the failing neuromuscular transmission in a range of neuromuscular disorders. After addition of tubocurarine the contractile force declined over the next 90 mins to 10-50% of the control force. 50 μM of the test compound was then added and the contractile force recovered despite the continued presence of tubocurarine. To quantify the ability of the compound to restore force the percentage of the initial force that was restored was determined after 40 mins of compound exposure (FIG. 2B) and the point increase is reported in Table 8.

rat soleus muscles [2] = experiment: Recovery of nerve-stimulated force in isolated rat soleus muscles exposed to sub-maximal tubocurarine (Table 1); conditions: for 500 μM % change after addition (AUC force): 500 μM compound
Protocol: The motor nerve was stimulated every 10 min for 2 s with 30 Hz with field stimulation using short duration pulses. […] Traces are shown before addition tubocurarine, after 40 min with tubocurarine, and after 110 min tubocurarine. […] This recovery of force was used in Table 1.
Experiments were performed using rat soleus muscles from either young (4-wk-old) or adult Wistar rats (12-14-week-old). Animal handling, killing and isolation of muscle is described elsewhere All experiments were performed using normal Krebs-Ringer bicarbonate solution (NKR). In solutions with elevated Mg^2+, MgCl^2 was added to NKR-solution causing minor increases in osmolarity and ionic strength. In solutions with elevated K^+, 4 mM NaCl was replaced by 4 mM KCl in the NKR.
In all contraction experiments, isometric force production was determined and force produced during contractions was quantified by measuring the integral of the force response (AUC). Stimulation and force recordings have been described elsewhere. […] In these latter experiments, extracellular recordings of action potentials (M-waves) could be measured without temporal overlap with stimulation artefacts.
The aim was to find compounds that by inhibition of CIC-1 channels can recover nerve-stimulated force under conditions of fatigue including conditions where fatigue is caused by compromised neuromuscular transmission. Neuromuscular transmission dysfunction can develop because of both pre- and/or post-synaptic complications in connection with a disorder or as part of neuromuscular blockade during/after surgery. In the initial series of drug testing, experiments were performed with isolated muscles in the presence of sub-maximal ACh receptor antagonist tubocurarine. Since the inclusion of tubocurarine caused a partial loss of neuromuscular transmission this experiment mimics the conditions in myasthenia gravis and neuromuscular blockade. To mimic conditions with pre-synaptic complication (Lambert Eaton syndrome, motor neuron disorder, polyneuropathy) the intact nerve-muscle preparations were incubated at elevated extracellular Mg^2+, which is known to suppress release of ACh from nerve terminals of motor neurons. […]
For comparison with the muscle only exposed to tubocurarine (grey trace), the two traces have been overlaid. […] For comparison, muscles only exposed to tubocurarine have been included. The dotted line indicates the recovery of force with C8 when compared to the force production before its addition. This value was used in Table 1 for evaluation of the efficacy of the different compounds in recovering force.

[3] = 150 μM compound, % change in AUC compared to AUC before addition, after 40 min in tubocurarine
[4] = % change in AUC compared to AUC before addition, after 40 min in tubocurarine

| Compound | EC50 (CIC-1 channels) | Point increase (%) of initial force that was restored (rat soleus muscles [1]) | also measured |
| --- | --- | --- | --- |
| C[C@@H](Oc1ccc(Br)cc1-c1ccno1)C(=O)O [(2R)-A-22] | > 80 µM | −3% | – |
| CC[C@H](Oc1ccc(Br)cc1-c1ccno1)C(=O)O [Compound A-1, (2S)-2-[4-bromo-2-(1,2-oxazol-5-yl)phenoxy]butanoic acid] | 12.4 µM | 18% | – |
| CC(C)[C@H](Oc1ccc(Br)cc1-c1ccon1)C(=O)O [Compound A-3, (2S)-2-[4-bromo-2-(1,2-oxazol-3-yl)phenoxy]-3-methylbutanoic acid] | 11.6 µM | – | – |
| C[C@H](Oc1ccc(Br)cc1-c1cc(C2CC2)on1)C(=O)O [Compound A-11, (2S)-2-[4-bromo-2-(5-cyclopropyl-1,2-oxazol-3-yl)phenoxy]propanoic acid] | 10.3 µM | 19% | – |
| O=C(O)[C@H](CF)Oc1ccc(Br)cc1-c1ccno1 [Compound A-21, (2R)-2-[4-bromo-2-(1,2-oxazol-5-yl)phenoxy]-3-fluoropropanoic acid] | – | 13% | – |
| CC[C@H](Oc1ccc(Cl)cc1-c1ccon1)C(=O)O [Compound A-35, (2S)-2-[4-chloro-2-(1,2-oxazol-3-yl)phenoxy]butanoic acid] | 10.4 µM | 28% | – |
| O=C(O)[C@H](CF)Oc1ccc(Cl)cc1-c1ccon1 [Compound A-39, (2R)-2-[4-chloro-2-(1,2-oxazol-3-yl)phenoxy]-3-fluoropropanoic acid] | 5.2 µM | 36% | – |
| C[C@H](Oc1ccc(Cl)cc1-c1cocn1)C(=O)O [Compound A-46, (2S)-2-[4-chloro-2-(1,3-oxazol-4-yl)phenoxy]propanoic acid] | – | 11% | – |
| O=C(O)[C@H](CF)Oc1cc(F)c(Cl)cc1-c1ccon1 [Compound A-47, (2R)-2-[4-chloro-5-fluoro-2-(1,2-oxazol-3-yl)phenoxy]-3-fluoropropanoic acid] | 7.7 µM | 19% | – |
| CC[C@H](Oc1ccc(Cl)cc1-c1ccno1)C(=O)O [Compound A-49, (2S)-2-[4-chloro-2-(1,2-oxazol-5-yl)phenoxy]butanoic acid] | – | 16% | – |
| O=C(O)[C@H](CC1CC1)Oc1ccc(Cl)cc1-c1ccno1 [Compound A-52, (2S)-2-[4-chloro-2-(1,2-oxazol-5-yl)phenoxy]-3-cyclopropylpropanoic acid] | – | 11% | – |
| C[C@H](Oc1ccc(Cl)cc1-c1csnn1)C(=O)O [Compound A-62, (2S)-2-[4-chloro-2-(1,2,3-thiadiazol-4-yl)phenoxy]propanoic acid] | 9.4 µM | 17% | – |
| O=C(O)[C@H](CF)Oc1cc(F)c(Br)cc1-c1ccon1 [Compound A-63, (2R)-2-[4-bromo-5-fluoro-2-(1,2-oxazol-3-yl)phenoxy]-3-fluoropropanoic acid] | 10.8 µM | 23% | – |
| O=C(O)[C@H](CF)Oc1ccc(Br)cc1-c1csnn1 [Compound A-66, (2R)-2-[4-bromo-2-(1,2,3-thiadiazol-4-yl)phenoxy]-3-fluoropropanoic acid] | – | 13% | – |
| CC[C@H](Oc1ccc(Br)cc1-c1csnn1)C(=O)O [Compound A-67, (2S)-2-[4-bromo-2-(1,2,3-thiadiazol-4-yl)phenoxy]butanoic acid] | – | 13% | – |
| O=C(O)COc1ccc(Br)cc1-c1ccno1 [Compound A-69, 2-[4-bromo-2-(1,2-oxazol-5-yl)phenoxy]acetic acid] | 7.8 µM | 15% | – |
| O=C(O)[C@H](CC1CCC1)Oc1ccc(Br)cc1-c1ccon1 [Compound A-71, (2S)-2-[4-bromo-2-(1,2-oxazol-3-yl)phenoxy]-3-cyclobutylpropanoic acid] | 6.5 µM | 15% | – |
| O=C(O)[C@H](CC1CC1)Oc1ccc(Br)cc1-c1csnn1 [Compound A-75, (2S)-2-[4-bromo-2-(1,2,3-thiadiazol-4-yl)phenoxy]-3-cyclopropylpropanoic acid] | – | 10% | – |
| O=C(O)COc1ccc(Cl)cc1-c1ccno1 [Compound A-78, 2-[4-chloro-2-(1,2-oxazol-5-yl)phenoxy]acetic acid] | – | 17% | – |
| O=C(O)COc1ccc(Br)cc1-c1csnn1 [Compound A-79, 2-[4-bromo-2-(1,2,3-thiadiazol-4-yl)phenoxy]acetic acid] | – | 17% | – |
| C[C@H](OCc1ccccc1)C(=O)O [Compound C5, (2S)-2-(benzyloxy)propanoic acid] | – | – | 150 μM % change after addition (AUC force) (rat soleus muscles [2]; [3]): 1%; 500 μM % change after addition (AUC force) (rat soleus muscles [2]; [4]): 42% |
| CC(C(=O)O)S(=O)(=O)c1ccc(F)cc1 (stereo not drawn) [Compound C6, 2-(4-fluorobenzenesulfonyl)propanoic acid] | – | – | 150 μM % change after addition (AUC force) (rat soleus muscles [2]; [3]): −8%; 500 μM % change after addition (AUC force) (rat soleus muscles [2]; [4]): 9% |
| CCC(Oc1ccc(Cl)cc1)C(=O)O (stereo not drawn) [Compound C7, 2-(4-chlorophenoxy)butanoic acid] | – | – | 150 μM % change after addition (AUC force) (rat soleus muscles [2]; [3]): 0%; 500 μM % change after addition (AUC force) (rat soleus muscles [2]; [4]): 40% |
| Cl.NCC(Oc1ccc(F)cc1)C(=O)O (stereo not drawn) [Compound C9, 3-amino-2-(4-fluorophenoxy)propanoic acid hydrochloride] | – | – | 150 μM % change after addition (AUC force) (rat soleus muscles [2]; [3]): −13%; 500 μM % change after addition (AUC force) (rat soleus muscles [2]; [4]): 5% |
| CC(Oc1ccc(Cl)cc1)C(=O)Oc1ccc(Cl)cc1 (stereo not drawn) [Compound C11, 4-chlorophenyl 2-(4-chlorophenoxy)propanoate] | – | – | 50 μM % change after addition (AUC force) (rat soleus muscles [2]): 46%; 150 μM % change after addition (AUC force) (rat soleus muscles [2]): 54% |
| COCC(C)C(Oc1ccc(Br)cc1)C(=O)O (stereo not drawn) [Compound C21, 2-(4-bromophenoxy)-4-methoxy-3-methylbutanoic acid] | – | – | 150 μM % change after addition (AUC force) (rat soleus muscles [2]; [3]): 7%; 500 μM % change after addition (AUC force) (rat soleus muscles [2]; [4]): 36% |

— US20260007639A1, “COMPOUNDS FOR THE TREATMENT OF NEUROMUSCULAR DISORDERS” (NMD PHARMA A/S, priority 2017, published 2026)
